What all share (type): functional, cell-based
One test relates to HL-60. Description: Cytotoxicity against human HL60 cells after 48 hrs by MTT assay.
For another test, the system named is SMMC-7721. Briefly: Cytotoxicity against human SMMC7721 cells after 48 hrs by MTT assay.
A further test has as its system A549. Description: Cytotoxicity against human A549 cells after 48 hrs by MTT assay.
Another test has as its system SW480. Briefly: Cytotoxicity against human SW480 cells after 48 hrs by MTT assay.
Another test relates to MCF7. Briefly: Cytotoxicity against human MCF7 cells after 48 hrs by MTT assay.

Bounds are passed on as bounds.

Turning to `c1ccc2cc(C[n+]3ccn(Cc4c5c(cc6c4OCC6)OCC5)c3)ccc2c1`, the IC50 is above 20 µM in the test on HL-60 (Homo sapiens, HL-60, 48 h); above 20 µM in the test on SMMC-7721 (Homo sapiens, SMMC-7721, 48 h); above 20 µM in the test with A549 (Homo sapiens, A549, 48 h); above 20 µM with SW480 (Homo sapiens, SW480, 48 h); above 20 µM in the test with MCF7 (Homo sapiens, MCF7, 48 h).

On to `Cc1n(Cc2c3c(cc4c2OCC4)OCC3)c2ccccc2[n+]1CC(=O)c1ccc(Br)cc1`, for which the IC50 in the test on HL-60 (Homo sapiens, HL-60, 48 h) is 4.7 µM; in the test with SMMC-7721 (Homo sapiens, SMMC-7721, 48 h), 11.8 µM; with A549 (Homo sapiens, A549, 48 h) it was above 20 µM; with SW480 (Homo sapiens, SW480, 48 h) it was 8.29 µM; in the test with MCF7 (Homo sapiens, MCF7, 48 h), 6.43 µM.

Consider `Cc1cc2ncn(Cc3c4c(cc5c3OCC5)OCC4)c2cc1C`, for which the 50% inhibitory concentration (IC50) in the test with HL-60 (Homo sapiens, HL-60, 48 h) was above 20 µM; in the test with SMMC-7721 (Homo sapiens, SMMC-7721, 48 h) it was above 20 µM; in the test with A549 (Homo sapiens, A549, 48 h) it was above 20 µM; in the test with SW480 (Homo sapiens, SW480, 48 h), above 20 µM; with MCF7 (Homo sapiens, MCF7, 48 h), above 20 µM.

As to `O=C(C[n+]1ccn(Cc2c3c(cc4c2OCC4)OCC3)c1)c1ccc2ccccc2c1`, the IC50 with HL-60 (Homo sapiens, HL-60, 48 h) was above 20 µM; in the test with SMMC-7721 (Homo sapiens, SMMC-7721, 48 h), above 20 µM; in the test on A549 (Homo sapiens, A549, 48 h), above 20 µM; with SW480 (Homo sapiens, SW480, 48 h), above 20 µM; with MCF7 (Homo sapiens, MCF7, 48 h), above 20 µM.

For the molecule `Brc1ccccc1C[n+]1ccn(Cc2c3c(cc4c2OCC4)OCC3)c1`, the IC50 in the test with HL-60 (Homo sapiens, HL-60, 48 h) is above 20 µM; with SMMC-7721 (Homo sapiens, SMMC-7721, 48 h), above 20 µM; in the test with A549 (Homo sapiens, A549, 48 h) it was above 20 µM; in the test with SW480 (Homo sapiens, SW480, 48 h), above 20 µM; in the test on MCF7 (Homo sapiens, MCF7, 48 h), above 20 µM.

For `O=C(C[n+]1cn(Cc2c3c(cc4c2OCC4)OCC3)c2ccccc21)c1ccc2ccccc2c1`, the IC50 is 1.88 µM in the test with HL-60 (Homo sapiens, HL-60, 48 h); 5.25 µM in the test on SMMC-7721 (Homo sapiens, SMMC-7721, 48 h); 7.73 µM in the test on A549 (Homo sapiens, A549, 48 h); 5.42 µM in the test with SW480 (Homo sapiens, SW480, 48 h); 2.2 µM with MCF7 (Homo sapiens, MCF7, 48 h).

In the case of `O=C(C[n+]1cn(Cc2c3c(cc4c2OCC4)OCC3)c2ccccc21)c1ccccc1`, the IC50 in the test with HL-60 (Homo sapiens, HL-60, 48 h) was above 20 µM; in the test on SMMC-7721 (Homo sapiens, SMMC-7721, 48 h), above 20 µM; in the test on A549 (Homo sapiens, A549, 48 h), above 20 µM; in the test on SW480 (Homo sapiens, SW480, 48 h), above 20 µM; with MCF7 (Homo sapiens, MCF7, 48 h), above 20 µM.

As to `c1ccc2cc(C[n+]3cn(Cc4c5c(cc6c4OCC6)OCC5)c4ccccc43)ccc2c1`, the IC50 was found to be 2.3 µM in the test on HL-60 (Homo sapiens, HL-60, 48 h); 5.66 µM with SMMC-7721 (Homo sapiens, SMMC-7721, 48 h); 10.7 µM with A549 (Homo sapiens, A549, 48 h); 4.11 µM in the test with SW480 (Homo sapiens, SW480, 48 h); 2.62 µM with MCF7 (Homo sapiens, MCF7, 48 h).

`COc1ccc(C(=O)C[n+]2c(C)n(Cc3c4c(cc5c3OCC5)OCC4)c3ccccc32)cc1`: the IC50 in the test on HL-60 (Homo sapiens, HL-60, 48 h) is 5.14 µM; in the test with SMMC-7721 (Homo sapiens, SMMC-7721, 48 h) it was above 20 µM; with A549 (Homo sapiens, A549, 48 h) it was above 20 µM; in the test with SW480 (Homo sapiens, SW480, 48 h), 10.1 µM; with MCF7 (Homo sapiens, MCF7, 48 h) it was 7.87 µM.

Turning to `Brc1ccc(C[n+]2ccn(Cc3c4c(cc5c3OCC5)OCC4)c2)cc1`, the IC50 with HL-60 (Homo sapiens, HL-60, 48 h) was above 20 µM; in the test on SMMC-7721 (Homo sapiens, SMMC-7721, 48 h), above 20 µM; in the test on A549 (Homo sapiens, A549, 48 h), above 20 µM; with SW480 (Homo sapiens, SW480, 48 h) it was above 20 µM; with MCF7 (Homo sapiens, MCF7, 48 h) it was above 20 µM.

With `Cc1cc2c(cc1C)[n+](CC(=O)c1ccc3ccccc3c1)cn2Cc1c2c(cc3c1OCC3)OCC2`, the IC50 in the test with HL-60 (Homo sapiens, HL-60, 48 h) is 1.95 µM; in the test on SMMC-7721 (Homo sapiens, SMMC-7721, 48 h), 5.64 µM; in the test on A549 (Homo sapiens, A549, 48 h), 7.77 µM; in the test on SW480 (Homo sapiens, SW480, 48 h), 14 µM; with MCF7 (Homo sapiens, MCF7, 48 h) it was 8.67 µM.

Turning to `COc1ccc(C(=O)C[n+]2cn(Cc3c4c(cc5c3OCC5)OCC4)c3ccccc32)cc1`, the concentration for half-maximal inhibition (IC50) was 5.99 µM in the test with HL-60 (Homo sapiens, HL-60, 48 h); above 20 µM in the test with SMMC-7721 (Homo sapiens, SMMC-7721, 48 h); above 20 µM with A549 (Homo sapiens, A549, 48 h); 14 µM in the test on SW480 (Homo sapiens, SW480, 48 h); 6.6 µM in the test with MCF7 (Homo sapiens, MCF7, 48 h).

For the molecule `Cc1n(Cc2c3c(cc4c2OCC4)OCC3)c2ccccc2[n+]1Cc1ccccc1Br`, the IC50 in the test on HL-60 (Homo sapiens, HL-60, 48 h) was above 20 µM; with SMMC-7721 (Homo sapiens, SMMC-7721, 48 h), above 20 µM; in the test on A549 (Homo sapiens, A549, 48 h) it was above 20 µM; with SW480 (Homo sapiens, SW480, 48 h), above 20 µM; in the test with MCF7 (Homo sapiens, MCF7, 48 h), above 20 µM.

Consider `c1cn(Cc2c3c(cc4c2OCC4)OCC3)cn1`, for which the 50% inhibitory concentration (IC50) with HL-60 (Homo sapiens, HL-60, 48 h) is above 20 µM; in the test with SMMC-7721 (Homo sapiens, SMMC-7721, 48 h) it was above 20 µM; in the test on A549 (Homo sapiens, A549, 48 h), above 20 µM; in the test with SW480 (Homo sapiens, SW480, 48 h) it was above 20 µM; in the test on MCF7 (Homo sapiens, MCF7, 48 h) it was above 20 µM.

Take `Brc1ccccc1C[n+]1cn(Cc2c3c(cc4c2OCC4)OCC3)c2ccccc21`: the IC50 was 4.9 µM in the test with HL-60 (Homo sapiens, HL-60, 48 h); above 20 µM with SMMC-7721 (Homo sapiens, SMMC-7721, 48 h); above 20 µM in the test on A549 (Homo sapiens, A549, 48 h); 8.95 µM with SW480 (Homo sapiens, SW480, 48 h); 8.3 µM in the test with MCF7 (Homo sapiens, MCF7, 48 h).

As to `Cc1ccc(C[n+]2ccn(Cc3c4c(cc5c3OCC5)OCC4)c2)cc1`, the half-inhibitory concentration (IC50) in the test on HL-60 (Homo sapiens, HL-60, 48 h) was above 20 µM; in the test on SMMC-7721 (Homo sapiens, SMMC-7721, 48 h) it was above 20 µM; with A549 (Homo sapiens, A549, 48 h) it was above 20 µM; in the test with SW480 (Homo sapiens, SW480, 48 h), above 20 µM; in the test on MCF7 (Homo sapiens, MCF7, 48 h) it was above 20 µM.

Take `c1ccc2c(c1)ncn2Cc1c2c(cc3c1OCC3)OCC2`: the half-inhibitory concentration (IC50) is above 20 µM in the test with HL-60 (Homo sapiens, HL-60, 48 h); above 20 µM with SMMC-7721 (Homo sapiens, SMMC-7721, 48 h); above 20 µM in the test with A549 (Homo sapiens, A549, 48 h); above 20 µM in the test on SW480 (Homo sapiens, SW480, 48 h); above 20 µM in the test with MCF7 (Homo sapiens, MCF7, 48 h).

As to `Cc1cc2c(cc1C)[n+](Cc1ccc3ccccc3c1)cn2Cc1c2c(cc3c1OCC3)OCC2`, the half-inhibitory concentration (IC50) in the test on HL-60 (hl-60) was determined as 0.29 µM; with SMMC-7721 (smmc-7721) it was 2.98 µM; with A549 (a549), 3.62 µM; with SW480 (sw480), 6.84 µM; in the test on MCF7 (mcf7) it was 8.34 µM.

On to `Cc1cc2c(cc1C)[n+](Cc1ccc([N+](=O)[O-])cc1)cn2Cc1c2c(cc3c1OCC3)OCC2`, for which the half-inhibitory concentration (IC50) in the test on HL-60 (Homo sapiens, HL-60, 48 h) was above 20 µM; in the test on SMMC-7721 (Homo sapiens, SMMC-7721, 48 h), above 20 µM; in the test with A549 (Homo sapiens, A549, 48 h), above 20 µM; in the test on SW480 (Homo sapiens, SW480, 48 h), above 20 µM; with MCF7 (Homo sapiens, MCF7, 48 h), above 20 µM.

The record behind these values is ChEMBL document CHEMBL4049402, “Synthesis and cytotoxic activity of novel tetrahydrobenzodifuran-imidazolium salt derivatives” (Bioorg Med Chem Lett, 2017).
